Laboratory results: patent publication US20090074844A1, “TRENADERMAL ABSORPTION PREPARATION” (ONO PHARMACEUTICAL CO., LTD., priority 2005, published 2009)

Columns and labels:
[1] = Drug permeability test using human skin, Franz type cell, LC/MS/MS; type: in vitro ADME; conditions: preparation of Example 3 (70 μg/cm^2, oleyl alcohol), slope of cumulative permeation quantities, FIG. 4, n=3
Description: Drug permeability test using human skin Human skin purchased from Asterand (abdominal skin of a person, epidermal-dermal skin (no heat treatment), n=3) was attached to a Franz type cell (1.78 cm^2), and the pharmaceutical preparation produced in Example 3 was applied to the stratum corneum side. Physiological saline (8 ml) was applied to the dermal layer side cell. From the dermal layer side cell, 1 ml portion thereof was periodically collected, and the compound A and compound B were determined by LC/MS/MS method under the following conditions. Cumulative permeation quantities until 48 hours were determined to calculate average values.
LC/MS/MS Measuring Conditions (HPLC)
Measuring instrument: Perkin-Elmer Series 200 Micro-pumps and CTC […]
Flow rate: 300 μl/minute Injection quantity: 5 μl Running time: 4.5 minutes Retention time: compound A; until 3.45 minutes/compound B; until 3.25 minutes Mass spectrometry […]
Human skin permeability of compound A and compound B which is its active form was measured to calculate the cumulative permeation quantities, with the results shown in FIG. 4. Their skin permeation rates were calculated from the slope of cumulative permeation quantities in FIG. 4. […]
FIG. 4 is a result of a human skin permeability test which used the pharmaceutical preparations produced in Example 3. It represents cumulatively detected amounts of compound A and compound B.

[2] = In vitro skin permeability test (1), Franz type cell; type: in vitro ADME, rat; conditions: for cumulative permeation quantity until 24 hours: patch (pharmaceutical preparation 1A, 0.2 mg/cm^2) on rat abdominal skin, determined as compound B or PGE1, FIG. 1
Description: The hair-removed skin extracted from the abdominal region of each of male Wister rats (7 weeks of age, Wister/Slc, n=3) was attached to a Franz type cell (1.1 cm in diameter). The aforementioned pharmaceutical preparation 1A prepared in Example 1 was applied to the stratum corneum of the hair-removed skin extracted from the abdominal region. Hanks' buffer (HBSS) (Sigma, pH 7.4) was applied to the dermal layer side cell. HBSS (200 μL) was periodically collected from the dermal layer side cell, and compound B as the active form of compound A or PGE1 was determined by the HPLC method under the following conditions. Cumulative permeation quantities until 24 hours were determined to calculate average values.
Compound A (Active Form: Compound B)
Column: YMC-Pack ODS A-302 (4.6 mm I.d., 150 mm),
Column temperature: 50° C.,
Moving bed: 0.1% phosphoric acid aqueous solution: acetonitrile=7:3,
Detection wavelength: 220 nm,
Internal standard: ethyl p-hydroxybenzoate.
Column temperature: 30° C.,
Moving bed: 0.02 M potassium hydrogenphosphate aqueous solution:acetonitrile=3:2,
Detection wavelength: 205 nm,
Internal standard: n-propyl p-hydroxybenzoate.
FIG. 1 is a result of the in vitro skin permeability test (1) in Test Example (1) of Biological Examples. The cumulative permeation quantity of compound A represents a value calculated by converting the detected value of compound B into compound A.

Row | skin permeation rate [1] | conversion of compound A into the active form, compound B, during permeation through the skin ([2]; patch preparation 1A on rat abdominal skin) | compound A in the dermal layer side cell ([2]; patch preparation 1A on rat abdominal skin, HBSS pH 7.4) | Compound | cumulative permeation quantity until 24 hours ([2]; HBSS pH 7.4)
1 | 0.07±0.01 μg/cm^2/hr | – | – | COCc1cccc(C[C@H](O)/C=C/[C@H]2[C@H](O)CC(=O)[C@@H]2CCSCCCC(=O)O)c1 [compound B, 4-{[2-((1R,2R,3R)-3-hydroxy-2-{(1E,3S)-3-hydroxy-4-[3-(methoxymethyl)phenyl]but-1-enyl}-5-oxocyclopentyl)ethyl]sulfanyl}butanoic acid] | –
2 | 0.16±0.04 μg/cm^2/hr | completely converted | not detected | COCc1cccc(C[C@H](O)/C=C/[C@H]2[C@H](O)CC(=O)[C@@H]2CCSCCCC(=O)OC)c1 [compound A, methyl 4-{[2-((1R,2R,3R)-3-hydroxy-2-{(1E,3S)-3-hydroxy-4-[3-(methoxymethyl)phenyl]but-1-enyl}-5-oxocyclopentyl)ethyl]sulfanyl}butanoate] | high cumulative permeation quantity was obtained
3 | – | – | – | CCCCC[C@H](O)/C=C/[C@H]1[C@H](O)CC(=O)[C@@H]1CCCCCCC(=O)O [PGE1, reference compound] | high cumulative permeation quantity was not obtained
